This is an account of results in patent US9849185B2, “Benzoic acid, benzoic acid derivatives and heteroaryl carboxylic acid conjugates of hydromorphone, prodrugs, methods of making and use thereof” (priority 2011, dated 2017).

The nature of data set [1]: Oral pharmacokinetic study in rats (released hydromorphone in plasma). The conditions noted are these: rat; for AUC of hydromorphone released from the conjugate / Cmax of hydromorphone released from the conjugate / Tmax of hydromorphone released from the conjugate: oral solution, dose equimolar to 2.0 mg/kg hydromorphone, plasma.
A short description of data set [2]: Intravenous pharmacokinetic study in rats. The conditions noted are these: rat, 0.20 mg/kg.
Data set [3] can be described thus: Tamper resistance study: extraction methods, hydromorphone release by HPLC. The conditions noted are these: for amount of hydromorphone released from 3,6-di-aspirin-HM: %-AUC by HPLC. The text has this:
Certain prodrug conjugates of the present technology were exposed to various commonly applied “extraction methods” to test for hydrolysis and/or decomposition of the prodrug.

The next data set concerns GI transit. The data set is described as follows: Validated rat gastrointestinal (GI) motility study. The settings on record: oral, equimolar dose, result in words.
Data set [4] in a line: Intranasal pharmacokinetic study in rats. The settings on record: rat, equimolar to 2.0 mg/kg hydromorphone. As to the method: The intranasal studies were performed at doses equimolar to 2.0 mg/kg of hydromorphone.
Where [5] appears, read: oral, equimolar to 2.0 mg/kg hydromorphone, result in words.

For `CC(=O)Oc1ccccc1C(=O)OC1=CC[C@H]2[C@H]3Cc4ccc(OC(=O)c5ccccc5OC(C)=O)c5c4[C@@]2(CCN3C)[C@H]1O5` [3,6-di-Aspirin-HM, 3,6-di-aspirin-hydromorphone], the “AUC of hydromorphone released from the conjugate” value (“AUC of hydromorphone released” below) in data set [1] turned out to be 82.4 ng·h/mL. The “Cmax of hydromorphone released from the conjugate” value (shortened to “Cmax of hydromorphone released”) in data set [1] was determined as 36.5 ng/mL. In addition, the “Tmax of hydromorphone released from the conjugate” value (from here on “Tmax of hydromorphone released”) in data set [1] was 15 min. Besides, in data set [1] (setting [5]), the “hydromorphone plasma concentrations compared to unconjugated hydromorphone” value is on record as “comparable”. Besides, the figures for the “AUC as % of unconjugated hydromorphone” value in data set [2] and in data set [4] were 6% and 17%, respectively. Also, the “Cmax as % of unconjugated hydromorphone” value in data set [2] is 3%; in data set [4] it was 20%. In data set [2] (result in words), the “plasma concentrations of hydromorphone after intravenous administration compared to unconjugated hydromorphone” value was “significantly lower”. In addition, the “amount of hydromorphone released from 3,6-di-aspirin-HM” value (“amount of hydromorphone released” for short) in data set [3] (1N HCl, ambient temperature, 30 min.) is 0%; in data set [3] (1N HCl, ambient temperature, 60 min.), 0%; in data set [3] (1N NaOH, ambient temperature, 30 min.), 1%; in data set [3] (1N NaOH, ambient temperature, 60 min.) it was 1%; in data set [3] (4N NaOH, ambient temperature, 30 min.), 1%; in data set [3] (4N NaOH, ambient temperature, 60 min.), 6%. For the same molecule, the “amount of hydromorphone released” value is 0% in data set [3] (5% Acetic acid, ambient temperature, 30 min.); 0% in data set [3] (5% Acetic acid, ambient temperature, 60 min.); 0% in data set [3] (Glacial acetic acid, ambient temperature, 30 min.); 0% in data set [3] (Glacial acetic acid, ambient temperature, 60 min.); 0% in data set [3] (Sat. NaHCO3, ambient temperature, 30 min.); 0% in data set [3] (Sat. NaHCO3, ambient temperature, 60 min.). Moreover, the “amount of hydromorphone released” value came to 0% in data set [3] (Water, ambient temperature, 30 min.) and 0% in data set [3] (Water, ambient temperature, 60 min.). Moreover, in data set [3] (result in words), the “chemical stability under commonly applied "extraction methods"” value is recorded as “chemically stable”. Besides, the “outcome of solvent extraction from formulation” value in data set [3] (result in words) was “only yielded inactive prodrug”. The “reduction of GI transit compared to hydromorphone hydrochloride” value in the data set with GI transit is given as “reduces GI transit to a lesser extent than hydromorphone hydrochloride”. Moreover, the “plasma concentrations of hydromorphone after intranasal administration compared to the parent drug” value in data set [4] (result in words) was “significantly reduced”.

As for `CN1CCC23c4c5ccc(OC(=O)c6ccccc6)c4OC2C(OC(=O)c2ccccc2)=CCC3C1C5` (stereo not drawn) [3,6-di-Benzoate-HM, 3,6-di-benzoate-hydromorphone], in data set [1], the “AUC of hydromorphone released” value was found to be 30.1 ng·h/mL, the “Cmax of hydromorphone released” value is recorded as 11.3 ng/mL and the “Tmax of hydromorphone released” value came to 15 min. Moreover, in data set [1] (setting [5]), the “hydromorphone plasma concentrations compared to unconjugated hydromorphone” value is “lower at all time points”.

On to `CN1CCC23c4c5ccc(OC(=O)c6ccccc6)c4OC2C(=O)CCC3C1C5` (stereo not drawn) [3-Benzoate-HM, 3-benzoate-hydromorphone], for which, in data set [1], the “AUC of hydromorphone released” value was found to be 41.2 ng·h/mL, the “Cmax of hydromorphone released” value came to 19.8 ng/mL and the “Tmax of hydromorphone released” value was determined as 30 min. In addition, the “hydromorphone plasma concentrations compared to unconjugated hydromorphone” value in data set [1] (setting [5]) was “lower at all time points”.

`CN1CCC23c4c5ccc(OC(=O)C=Cc6ccccc6)c4OC2C(=O)CCC3C1C5` (stereo not drawn) [3-Cinnamate-HM, 3-cinnamate-hydromorphone]: in data set [1], the “AUC of hydromorphone released” value is 25.3 ng·h/mL, the “Cmax of hydromorphone released” value is listed as 28.3 ng/mL and the “Tmax of hydromorphone released” value worked out at 15 min. The “hydromorphone plasma concentrations compared to unconjugated hydromorphone” value in data set [1] (setting [5]) is listed as “lower at all time points”.

Turning to `CN1CC[C@]23c4c5ccc(OC(=O)c6ccccc6Nc6ccccc6)c4OC2C(=O)CC[C@H]3[C@H]1C5` (stereo partly drawn) [3-Fenamate-HM, 3-fenamate-hydromorphone], in data set [1], the “AUC of hydromorphone released” value was found to be 44.6 ng·h/mL, the “Cmax of hydromorphone released” value came to 30.6 ng/mL and the “Tmax of hydromorphone released” value worked out at 15 min. In data set [1] (setting [5]), the “hydromorphone plasma concentrations compared to unconjugated hydromorphone” value is “elevated for the first hour after oral administration and then decreased quickly”.

For the molecule `CN1CCC23c4c5ccc(OC(=O)c6ccncc6)c4OC2C(=O)CCC3C1C5` (stereo not drawn) [3-Isoniacin-HM, 3-isoniacin-hydromorphone], in data set [1], the “AUC of hydromorphone released” value was found to be 25.1 ng·h/mL, the “Cmax of hydromorphone released” value turned out to be 18.5 ng/mL and the “Tmax of hydromorphone released” value stood at 15 min. The “Cmax value of released hydromorphone compared to unconjugated hydromorphone” value in data set [1] (setting [5]) is “lower”.

Consider `CN1CCC23c4c5ccc(OC(=O)c6ccc(O)cc6)c4OC2C(=O)CCC3C1C5` (stereo not drawn) [3-p-Salicylic-HM, 3-p-salicylic-hydromorphone], for which, in data set [1], the “AUC of hydromorphone released” value stood at 31.4 ng·h/mL, the “Cmax of hydromorphone released” value is given as 17.2 ng/mL and the “Tmax of hydromorphone released” value was found to be 15 min. Further, in data set [1] (setting [5]), the “hydromorphone plasma concentrations compared to unconjugated hydromorphone” value is “lower at all time points”.

On to `COc1ccc2cc(C(C)C(=O)OC3=CCC4C5Cc6ccc(O)c7c6C4(CCN5C)C3O7)ccc2c1` (stereo not drawn) [6-Naproxen-HM, 6-naproxen-hydromorphone], for which, in data set [1], the “AUC of hydromorphone released” value came out at 31.6 ng·h/mL, the “Cmax of hydromorphone released” value worked out at 19.1 ng/mL and the “Tmax of hydromorphone released” value came out at 15 min. Moreover, the “overall exposure after oral administration compared to the parent drug” value in data set [1] (setting [5]) is on record as “reduced significantly”.

Turning to `CN1CCC23c4c5ccc(O)c4OC2C(OC(=O)c2ccccc2O)=CCC3C1C5` (stereo not drawn) [6-o-Salicylate-HM, 6-o-salicylate-hydromorphone], in data set [1], the “AUC of hydromorphone released” value stood at 33.3 ng·h/mL, the “Cmax of hydromorphone released” value was 14.1 ng/mL and the “Tmax of hydromorphone released” value turned out to be 15 min. Moreover, the “Cmax value of released hydromorphone compared to unconjugated hydromorphone” value in data set [1] (setting [5]) is given as “lower”.

Consider `CC(=O)Oc1ccccc1C(=O)Oc1ccc2c3c1OC1C(=O)CCC4C(C2)N(C)CCC314` (stereo not drawn) [Conjugate 3-Aspirin-HM, 3-aspirin-hydromorphone], for which, in data set [1], the “AUC of hydromorphone released” value turned out to be 55.9 ng·h/mL, the “Cmax of hydromorphone released” value was determined as 44.3 ng/mL and the “Tmax of hydromorphone released” value is 15 min. For the same molecule, the “hydromorphone plasma concentrations compared to unconjugated hydromorphone” value in data set [1] (setting [5]) is recorded as “comparable”.
